Laboratory results taken from patent publication US20100234364A1, “CCR2 INHIBITORS AND METHODS OF USE THEREOF” (priority 2007, published 2010).

The compounds below were run against T1, CCR2 (Homo sapiens, UniProt P41597) (assay: chemotaxis (conventional migration), ligand binding or calcium mobilization (calcium flux) assays). Conditions: Table 2: activity in one of the chemotaxis.
T1 construct: chemokine expressing cells (such as THP-1 cells for CCR2 assay or MOLT-4 cells for CCR9 assay); host or cells: THP-1 cells
Assay type: cell-based
Experimental: THP-1 cells and MOLT-4 cells were obtained from the American Type Culture Collection (Manassas, Va.) and cultured in RPMI tissue culture medium supplemented with 10% fetal calf serum (FCS) in a humidified 5% CO2 incubator at 37° C. Recombinant human chemokine proteins MCP-1 and TECK were obtained from R&D Systems (Minneapolis, Minn.). ^125I-labeled MCP-1 protein was obtained from Amersham (Piscataway, N.J.). ChemoTX® chemotaxis microchambers were purchased from Neuro Probe (Gaithersburg, Md.). CyQUANT® cell proliferation kits were purchased from Molecular Probes (Eugene, Oreg.). Calcium indicator dye Fluo-4 AM was purchased from Molecular Devices (Mountain View, Calif.).
Conventional-migration assay was used to determine the efficacy of potential receptor antagonists in blocking migration mediated through chemokines (such as CCR2 or CCR9). This assay was routinely performed using the ChemoTX® microchamber system with a 5-μm pore-sized polycarbonate membrane. To begin such an assay, chemokine expressing cells (such as THP-1 cells for CCR2 assay or MOLT-4 cells for CCR9 assay) were harvested by centrifugation of cell suspension at 1000 RPM on a GS-6R Beckman centrifuge. The cell pellet was resuspended in chemotaxis buffer (HBSS with 0.1% BSA) at 10×10^6cells/mL for CCR2 assay (5 ×10^6cells/mL for CCR9 assay). Test compounds at desired concentrations were prepared from 10 mM stock solutions by serial dilutions in chemotaxis buffer. An equal volume of cells and compounds were mixed and incubated at room temperature for 15 minutes. Afterwards, 20 μL of the mixture was transferred onto the porous membrane of a migration microchamber, with 29 μL of chemokine ligand (0.1 nM chemokine MCP-1 protein for CCR2 assay or 50 nm chemokine TECK protein for CCR9 assay) placed at the lower chamber. Following an incubation at 37° C. (90-minute for CCR2; 150-minute for CCR9), during which cells migrated […] the chemokine gradient, the assay was terminated by removing the cell drops from atop the filter. To quantify cells migrated across the membrane, 5 μL of 7X CyQUANT® solution was added to each well in the lower chamber, and the fluorescence signal measured on a Spectrafluor Plus fluorescence plate reader (TECAN, Durham, N.C.). The degree of inhibition was determined by comparing migration signals between compound-treated and untreated cells. IC50 calculation was further performed by non-linear squares regression analysis using Graphpad Prism (Graphpad Software, San Diego, Calif.).
Calcium flux assay measures an increase in intracellular calcium following ligand-induced receptor activation. In the screen of chemokine antagonists, it was used as a secondary assay carried out on a FLIPR® machine (Molecular Devices, Mountain View, Calif.). To begin an assay, chemokine expressing cells (such as THP-1 cells for CCR2 assay or MOLT-4 cells for CCR9 assay) were harvested by centrifugation of cell suspension, and resuspended to 1.5×10^6 cells/mL in HBSS (with 1% fetal calf serum). Cells were then labeled with a calcium indicator dye Fluo-4 AM for 45 minutes at 37° C. with gentle shaking. Following incubation, cells were pelletted, washed once with HBSS and resuspended in the same buffer at a density of 1.6×10^6 cells/mL. One hundred microliters of labeled cells were mixed with 10 μL of test compound at the appropriate concentrations on an assay plate. Chemokine protein (MCP-1 at a final concentration of 0.1 nM for CCR2 assay or TECK at a final concentration of 25 nM for CCR9 assay) to activate the receptor. The degree of inhibition was determined by comparing calcium signals between compound-treated and untreated cells. IC50 calculations were further performed by non-linear squares regression analysis using Graphpad Prism (Graphpad Software, San Diego, Calif.).
Ligand binding assay was used to determine the ability of potential CCR2 antagonists to block the interaction between CCR2 and its ligand MCP-1. […]

T1 sequence (P41597 whole entry): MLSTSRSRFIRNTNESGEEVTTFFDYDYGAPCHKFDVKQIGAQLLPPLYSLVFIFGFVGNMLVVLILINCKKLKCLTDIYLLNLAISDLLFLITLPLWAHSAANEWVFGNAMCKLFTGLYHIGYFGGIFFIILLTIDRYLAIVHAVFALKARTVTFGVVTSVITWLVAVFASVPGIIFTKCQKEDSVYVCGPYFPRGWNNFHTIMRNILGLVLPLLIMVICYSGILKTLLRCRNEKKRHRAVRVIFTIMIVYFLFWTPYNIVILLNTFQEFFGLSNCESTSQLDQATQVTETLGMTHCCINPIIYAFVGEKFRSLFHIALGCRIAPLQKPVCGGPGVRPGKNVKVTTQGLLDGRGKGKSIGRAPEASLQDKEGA

| SMILES | IC50 [nM] |
| --- | --- |
| O=C(c1ccccc1)c1ccc(Cl)cc1NS(=O)(=O)c1ccc(Cl)c(C(F)(F)F)c1 [drawing 278] | < 500 |
| O=C(c1ccccc1)c1cc(Cl)ccc1NS(=O)(=O)c1ccc(Cl)c(Cl)c1 [drawing 296] | < 500 |
| O=C(c1ccccc1)c1cc(Cl)ccc1NS(=O)(=O)c1ccc(Cl)cc1 [drawing 298] | < 500 |
| O=C(c1ccccc1)c1ccc(Br)cc1NS(=O)(=O)c1ccc(Cl)c(Cl)c1 [drawing 301] | < 500 |
| Cn1ccnc1C(O)c1cc(Cl)ccc1NS(=O)(=O)c1ccc(Cl)c(Cl)c1 (stereo not shown) [drawing 303] | < 500 |
| O=S(=O)(Nc1ccc(Cl)cc1-c1nnn[nH]1)c1ccc(Cl)c(Cl)c1 [drawing 304] | < 500 |
| O=C(c1ccc(F)cc1)c1cc(Cl)ccc1NS(=O)(=O)c1ccc(Cl)c(Cl)c1 [drawing 305] | < 500 |

Results, then the compound that gave them:

| IC50 [nM] | SMILES |
| --- | --- |
| < 500 | O=C(c1ccc(Cl)cc1NS(=O)(=O)c1ccc(Cl)c(C(F)(F)F)c1)N1CCCCC1 [drawing 291] |
| < 500 | O=C(c1ccccc1)c1cc(F)ccc1NS(=O)(=O)c1ccc(Cl)c(Cl)c1 [drawing 300] |
| < 500 | O=C(c1ccccc1)c1cc(Cl)ccc1NS(=O)(=O)c1ccc(Cl)c(C(F)(F)F)c1 [drawing 302] |

Same assay, conditions: Table 3: activity in one of the chemotaxis

| SMILES | IC50 [nM] |
| --- | --- |
| Cc1ccc(C(=O)c2ccccc2)c(NS(=O)(=O)c2ccc(Cl)c(C(F)(F)F)c2)c1 | 500 to 5000 |
| CNC(=O)C1CCCN1C(=O)c1ccc(Cl)cc1NS(=O)(=O)c1ccc(Cl)c(C(F)(F)F)c1 (stereo not shown) | 500 to 5000 |
| O=C(c1ccccn1)c1cc(Cl)ccc1NS(=O)(=O)c1ccc(Cl)c(Cl)c1 | 500 to 5000 |
| O=C(c1ccc(Cl)cc1NS(=O)(=O)c1ccc(Cl)cc1)N1CCOCC1 | 500 to 5000 |
| O=C(c1cc(Br)ccc1NS(=O)(=O)c1ccc(Cl)cc1)N1CCOCC1 | 500 to 5000 |
| O=C(c1cc(Cl)ccc1NS(=O)(=O)c1ccc(Cl)cc1)N1CCOCC1 | 500 to 5000 |
| O=C(c1cc(Cl)ccc1NS(=O)(=O)c1cccc(Cl)c1)N1CCOCC1 | 500 to 5000 |
| O=C(c1cc(Cl)ccc1NS(=O)(=O)c1ccc(Cl)cc1Cl)N1CCOCC1 | 500 to 5000 |
| Cc1cc(S(=O)(=O)Nc2cc(Cl)ccc2C(=O)N2CCOc3cccnc32)ccc1Cl | 500 to 5000 |
| O=C(c1cc(Cl)ccc1NS(=O)(=O)c1ccc(Br)cc1)N1CCOCC1 | 500 to 5000 |
| O=C(c1cc(Cl)ccc1NS(=O)(=O)c1ccc(Cl)cc1)N1CCCCC1 | 500 to 5000 |
| CON=C(c1ccccc1)c1cc(Cl)ccc1NS(=O)(=O)c1ccc(Cl)c(Cl)c1 | 500 to 5000 |
| COC(=O)c1cc(NS(=O)(=O)c2ccc(Cl)c(Cl)c2)c(C(=O)c2ccccc2)cc1Cl | 500 to 5000 |
| O=C(c1ccccc1)c1cc(Cl)ccc1NS(=O)(=O)c1ccc(Cl)c([N+](=O)[O-])c1 | 500 to 5000 |
| Cc1ccc(S(=O)(=O)Nc2ccc(Cl)cc2C(=O)c2ccccc2)cc1Cl | 500 to 5000 |
| O=S(=O)(Nc1ccc(Cl)cc1-c1ccccc1)c1ccc(Cl)c(Cl)c1 | 500 to 5000 |
| O=S(=O)(Nc1cc(Cl)ccc1-c1nnn[nH]1)c1ccc(Cl)c(C(F)(F)F)c1 | 500 to 5000 |

Next, values leading:

| IC50 [nM] | SMILES |
| --- | --- |
| 500 to 5000 | N#Cc1cc(S(=O)(=O)Nc2cc(Cl)ccc2C(=O)c2ccccc2)ccc1F |
| 500 to 5000 | O=C(c1ccccc1)c1cc(Cl)ccc1NS(=O)(=O)c1cccc(C(F)(F)F)c1 |
| 500 to 5000 | O=C(c1ccccc1)c1cc(Cl)ccc1NS(=O)(=O)c1ccc(F)c(Cl)c1 |
| 500 to 5000 | O=C(c1ccncc1)c1cc(Cl)ccc1NS(=O)(=O)c1ccc(Cl)cc1 |
| 500 to 5000 | Cc1cccc(S(=O)(=O)Nc2ccc(Cl)cc2C(=O)N2CCOCC2)c1 |
| 500 to 5000 | O=C(c1cc(Cl)ccc1NS(=O)(=O)c1ccc(Cl)c(Cl)c1)N1CCOCC1 |
| 500 to 5000 | O=C(c1ccc(Cl)cc1NS(=O)(=O)c1ccc(C(F)(F)F)cc1Cl)N1CCOCC1 |
| 500 to 5000 | O=S(=O)(Nc1ccc(Cl)cc1Oc1ccccc1)c1ccc(Cl)c(Cl)c1 |
| 500 to 5000 | Cn1ccnc1C(=O)c1cc(Cl)ccc1NS(=O)(=O)c1ccc(Cl)c(Cl)c1 |
| 500 to 5000 | O=C(c1ccccc1)c1cc(Cl)ccc1NS(=O)(=O)c1ccc(C(F)(F)F)cc1[N+](=O)[O-] |
